# Results taken from ChEMBL document CHEMBL4368904 (J Med Chem, 2019).
# pEC50, pIC50, pKi: −log10 of the molar value. The source made the active and inactive calls. The calls are words filed in the database; no cut-off is given here.
# Columns and labels:
# Translocator protein = Translocator protein (Homo sapiens, UniProt P30536); assay: Inhibition of TSPO (unknown origin)
# Adenosine receptor A1 [1] = molecular target: T1, Adenosine receptor A1 (Homo sapiens, UniProt P30542); assay: Displacement of [3H]N6-R-phenylisopropyladenosine from human A1A adenosine receptor expressed in CHO cell membranes after 60 mins by scintillation proximity assay
# T1 sequence (P30542 whole entry): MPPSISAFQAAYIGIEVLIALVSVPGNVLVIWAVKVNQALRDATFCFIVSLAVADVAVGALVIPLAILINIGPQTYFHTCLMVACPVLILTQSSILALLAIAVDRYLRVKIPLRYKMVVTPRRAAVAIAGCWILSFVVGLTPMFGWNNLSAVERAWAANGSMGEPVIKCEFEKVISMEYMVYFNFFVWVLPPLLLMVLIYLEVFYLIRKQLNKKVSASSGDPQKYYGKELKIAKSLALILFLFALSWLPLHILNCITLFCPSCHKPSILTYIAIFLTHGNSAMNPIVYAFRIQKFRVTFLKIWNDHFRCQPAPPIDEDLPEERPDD
# [2] = molecular target: T2, 5-hydroxytryptamine receptor 2C (Homo sapiens, UniProt P28335); assay: Inhibition of 5HT2C (unknown origin)
# T2 sequence (P28335 whole entry): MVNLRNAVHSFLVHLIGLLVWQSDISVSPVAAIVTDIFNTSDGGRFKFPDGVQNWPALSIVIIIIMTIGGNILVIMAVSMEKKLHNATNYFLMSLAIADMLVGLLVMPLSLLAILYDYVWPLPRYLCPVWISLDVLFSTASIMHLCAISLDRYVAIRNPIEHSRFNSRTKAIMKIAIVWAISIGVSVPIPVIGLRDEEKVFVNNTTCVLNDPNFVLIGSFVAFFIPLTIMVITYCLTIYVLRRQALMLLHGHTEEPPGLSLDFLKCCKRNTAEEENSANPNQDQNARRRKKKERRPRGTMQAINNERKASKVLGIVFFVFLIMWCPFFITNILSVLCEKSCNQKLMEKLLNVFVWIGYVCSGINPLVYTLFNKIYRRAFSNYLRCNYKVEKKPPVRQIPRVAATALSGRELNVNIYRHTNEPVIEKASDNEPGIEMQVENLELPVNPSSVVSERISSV
# [3] = molecular target: 5-hydroxytryptamine receptor 2B (Homo sapiens, UniProt P41595); assay: Inhibition of 5HT2B (unknown origin)
# Sequence of 5-hydroxytryptamine receptor 2B (P41595 whole entry): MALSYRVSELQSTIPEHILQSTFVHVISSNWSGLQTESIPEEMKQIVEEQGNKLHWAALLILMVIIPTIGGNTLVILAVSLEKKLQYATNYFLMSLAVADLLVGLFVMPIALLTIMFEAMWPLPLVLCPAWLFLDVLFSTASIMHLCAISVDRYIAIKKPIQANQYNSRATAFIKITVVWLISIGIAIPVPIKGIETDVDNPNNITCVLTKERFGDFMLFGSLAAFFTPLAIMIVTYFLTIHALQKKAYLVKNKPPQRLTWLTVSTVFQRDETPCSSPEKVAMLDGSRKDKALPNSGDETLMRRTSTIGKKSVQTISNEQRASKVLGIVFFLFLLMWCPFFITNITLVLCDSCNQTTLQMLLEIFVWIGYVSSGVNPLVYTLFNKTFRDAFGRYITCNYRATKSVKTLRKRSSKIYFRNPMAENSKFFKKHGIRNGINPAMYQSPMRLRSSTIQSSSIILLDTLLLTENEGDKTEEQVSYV
# Adenosine receptor A3 [4] = molecular target: T3, Adenosine receptor A3 (Mus musculus, UniProt Q61618); assay: Displacement of [125I]N6-(4-amino-3-iodobenzyl)adenosine-5-N-methyluronamide from mouse A3A adenosine receptor expressed in CHO cell membranes after 60 mins by scintillation proximity assay
# T3 sequence (Q61618 whole entry): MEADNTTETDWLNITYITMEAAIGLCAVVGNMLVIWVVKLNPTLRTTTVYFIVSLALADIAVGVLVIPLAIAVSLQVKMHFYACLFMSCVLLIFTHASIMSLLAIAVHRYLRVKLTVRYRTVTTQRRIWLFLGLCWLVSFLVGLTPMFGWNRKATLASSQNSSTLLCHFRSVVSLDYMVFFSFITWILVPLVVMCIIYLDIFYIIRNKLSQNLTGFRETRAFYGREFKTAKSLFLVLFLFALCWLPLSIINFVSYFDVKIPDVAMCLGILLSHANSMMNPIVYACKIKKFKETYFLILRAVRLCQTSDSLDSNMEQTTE
# Adenosine receptor A2a [5] = molecular target: Adenosine receptor A2a (Homo sapiens, UniProt P29274); assay: Displacement of [3H]2-[p-(2-carboxyethyl)phenylethylamino]-5-N-ethylcarboxamidoadenosine from human A2A adenosine receptor expressed in HEK293 cell membranes at 10 uM after 60 mins by scintillation proximity assay relative to adenosine 5-N-ethyluronamide
# Sequence of Adenosine receptor A2a (Homo sapiens, UniProt P29274) (P29274 whole entry): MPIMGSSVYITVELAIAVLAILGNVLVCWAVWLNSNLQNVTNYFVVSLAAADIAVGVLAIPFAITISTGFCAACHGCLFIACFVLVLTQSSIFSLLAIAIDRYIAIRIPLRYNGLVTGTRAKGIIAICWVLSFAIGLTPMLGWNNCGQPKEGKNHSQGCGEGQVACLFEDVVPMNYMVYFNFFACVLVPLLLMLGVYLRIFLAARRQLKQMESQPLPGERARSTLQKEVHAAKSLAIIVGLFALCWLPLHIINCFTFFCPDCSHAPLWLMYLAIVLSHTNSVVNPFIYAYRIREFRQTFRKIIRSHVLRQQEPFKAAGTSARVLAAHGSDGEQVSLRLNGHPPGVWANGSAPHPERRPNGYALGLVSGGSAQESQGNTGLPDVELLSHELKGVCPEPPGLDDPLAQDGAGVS
# [6] = molecular target: Alpha-2A adrenergic receptor (Homo sapiens, UniProt P08913); assay: Inhibition of alpha2a receptor (unknown origin)
# Sequence of Alpha-2A adrenergic receptor (P08913 whole entry): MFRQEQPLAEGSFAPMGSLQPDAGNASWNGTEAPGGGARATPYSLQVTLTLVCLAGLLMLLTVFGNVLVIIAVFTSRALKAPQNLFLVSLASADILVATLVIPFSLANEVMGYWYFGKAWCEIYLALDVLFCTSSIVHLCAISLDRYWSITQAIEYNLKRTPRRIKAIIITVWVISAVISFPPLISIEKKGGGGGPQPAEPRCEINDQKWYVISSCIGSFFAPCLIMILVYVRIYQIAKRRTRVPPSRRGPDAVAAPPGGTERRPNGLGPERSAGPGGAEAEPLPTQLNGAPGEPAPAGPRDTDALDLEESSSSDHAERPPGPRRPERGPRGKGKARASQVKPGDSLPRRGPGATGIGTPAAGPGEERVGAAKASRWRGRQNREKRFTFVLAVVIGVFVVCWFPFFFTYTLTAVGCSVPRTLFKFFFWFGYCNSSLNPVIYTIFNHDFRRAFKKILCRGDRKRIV
# Adenosine receptor A3 [7] = molecular target: T4, Adenosine receptor A3 (Homo sapiens, UniProt P0DMS8); assay: Displacement of [125I]N6-(4-amino-3-iodobenzyl)adenosine-5-N-methyluronamide from human A3A adenosine receptor expressed in CHO cell membranes after 60 mins by scintillation proximity assay
# T4 sequence (P0DMS8 whole entry): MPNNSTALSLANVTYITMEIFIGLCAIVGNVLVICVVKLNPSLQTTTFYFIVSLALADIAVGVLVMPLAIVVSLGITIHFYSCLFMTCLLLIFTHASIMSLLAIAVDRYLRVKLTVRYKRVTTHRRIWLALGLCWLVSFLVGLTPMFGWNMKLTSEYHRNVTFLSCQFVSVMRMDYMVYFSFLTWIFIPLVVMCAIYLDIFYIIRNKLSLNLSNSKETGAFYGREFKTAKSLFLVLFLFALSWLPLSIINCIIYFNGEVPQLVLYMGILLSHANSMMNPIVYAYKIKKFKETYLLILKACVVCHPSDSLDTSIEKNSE
# Mus musculus [8] = assay: Induction of hypothermia in C57BL/6J mouse assessed as activity counts at 3 mg/kg, ip measured at 60 mins post dose (reference value: 15.5 +/- 5.5); format: functional
# Cytochrome P450 2C9 = Cytochrome P450 2C9 (Homo sapiens, UniProt P11712)
# Sequence of Cytochrome P450 2C9 (P11712 whole entry): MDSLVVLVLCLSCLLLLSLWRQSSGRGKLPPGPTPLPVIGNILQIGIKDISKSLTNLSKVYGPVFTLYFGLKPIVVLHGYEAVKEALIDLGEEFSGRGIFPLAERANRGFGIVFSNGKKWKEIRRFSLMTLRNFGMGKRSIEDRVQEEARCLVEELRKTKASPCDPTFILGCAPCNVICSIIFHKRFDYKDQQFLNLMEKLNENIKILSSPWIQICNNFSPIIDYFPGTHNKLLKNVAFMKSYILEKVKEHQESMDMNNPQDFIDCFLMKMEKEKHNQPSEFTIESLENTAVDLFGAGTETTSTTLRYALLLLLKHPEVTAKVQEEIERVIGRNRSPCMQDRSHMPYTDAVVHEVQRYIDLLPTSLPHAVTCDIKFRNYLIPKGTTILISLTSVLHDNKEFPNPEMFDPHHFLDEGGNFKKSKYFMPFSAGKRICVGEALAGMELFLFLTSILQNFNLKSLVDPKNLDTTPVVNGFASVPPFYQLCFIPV
# Description: Inhibition of human CYP2C9 using tolbutamide as substrate
# [9] = Oral bioavailability in CD1 mouse at 1 mg/kg; format: ADME, organism-based; conditions: in vivo
# [10] = Toxicity in Sprague-Dawley rat assessed as reduction in heart rate at 3 mg/kg, ip; format: organism-based; conditions: in vivo
# Adenosine receptor A1 [11] = molecular target: T5, Adenosine receptor A1 (Mus musculus, UniProt Q60612); assay: Displacement of [3H]N6-R-phenylisopropyladenosine from mouse A1A adenosine receptor expressed in CHO cell membranes after 60 mins by scintillation proximity assay
# T5 sequence (Q60612 whole entry): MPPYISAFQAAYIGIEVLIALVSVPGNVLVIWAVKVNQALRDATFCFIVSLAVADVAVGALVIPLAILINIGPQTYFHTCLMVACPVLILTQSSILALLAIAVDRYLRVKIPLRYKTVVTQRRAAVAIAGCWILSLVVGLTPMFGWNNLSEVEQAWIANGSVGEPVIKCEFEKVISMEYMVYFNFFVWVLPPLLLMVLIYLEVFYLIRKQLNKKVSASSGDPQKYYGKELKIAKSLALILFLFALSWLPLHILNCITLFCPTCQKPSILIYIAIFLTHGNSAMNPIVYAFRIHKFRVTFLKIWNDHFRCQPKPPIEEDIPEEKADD
# [12] = Elimination half life in CD1 mouse at 1 to 10 mg/kg, po; format: ADME, organism-based; conditions: in vivo
# Cytochrome P450 3A4 = Cytochrome P450 3A4 (Homo sapiens, UniProt P08684)
# Sequence of Cytochrome P450 3A4 (P08684 whole entry): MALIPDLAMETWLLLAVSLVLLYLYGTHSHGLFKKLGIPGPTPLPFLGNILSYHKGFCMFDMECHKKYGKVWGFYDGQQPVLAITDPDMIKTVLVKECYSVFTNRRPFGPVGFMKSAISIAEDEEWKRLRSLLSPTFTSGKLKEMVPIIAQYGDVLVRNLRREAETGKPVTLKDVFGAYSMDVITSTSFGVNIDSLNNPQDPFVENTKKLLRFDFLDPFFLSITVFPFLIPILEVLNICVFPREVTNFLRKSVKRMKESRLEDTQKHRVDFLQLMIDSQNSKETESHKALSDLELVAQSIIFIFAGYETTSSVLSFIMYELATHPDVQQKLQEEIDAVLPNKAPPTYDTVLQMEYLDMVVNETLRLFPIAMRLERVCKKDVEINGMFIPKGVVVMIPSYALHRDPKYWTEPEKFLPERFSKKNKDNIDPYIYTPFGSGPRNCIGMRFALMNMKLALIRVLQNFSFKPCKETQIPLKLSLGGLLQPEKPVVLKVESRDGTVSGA
# Description: Inhibition of human CYP3A4 using midazolam as substrate
# [13] = Toxicity in Sprague-Dawley rat assessed as increase in blood pressure at 3 mg/kg, ip; format: organism-based; conditions: in vivo
# [14] = Protein binding in rat plasma; format: ADME, cell-free
# Mus musculus [15] = assay: Induction of hypothermia in C57BL/6J mouse assessed as body temperature at 3 mg/kg, ip measured at 60 mins post dose (reference value: 36.3 +/- 0.8 degC); format: functional
# [16] = Oral bioavailability in CD1 mouse at 3 mg/kg; format: ADME, organism-based; conditions: in vivo
# [17] = Toxicity in rhesus monkey at 1 to 3 mg/kg dosed in food treat measured up to 4 hrs post dose; format: organism-based, Macaca mulatta; conditions: in vivo, po
# [18] = Stability in human liver microsomes; format: ADME, Microsome
# [19] = Elimination half life in CD1 mouse at 3 to 30 mg/kg, ip; format: ADME, organism-based; conditions: in vivo
# [20] = Toxicity in cynomolgus monkey effect on clinical parameters at 0.5 mg/kg, iv or 1 mg/kg, po measured after 1 day post dose; format: organism-based, Macaca fascicularis; conditions: in vivo, 24 h
# [21] = Protein binding in mouse plasma; format: ADME, cell-free
# Cytochrome P450 2D6 = Cytochrome P450 2D6 (Homo sapiens, UniProt P10635)
# Sequence of Cytochrome P450 2D6 (P10635 whole entry): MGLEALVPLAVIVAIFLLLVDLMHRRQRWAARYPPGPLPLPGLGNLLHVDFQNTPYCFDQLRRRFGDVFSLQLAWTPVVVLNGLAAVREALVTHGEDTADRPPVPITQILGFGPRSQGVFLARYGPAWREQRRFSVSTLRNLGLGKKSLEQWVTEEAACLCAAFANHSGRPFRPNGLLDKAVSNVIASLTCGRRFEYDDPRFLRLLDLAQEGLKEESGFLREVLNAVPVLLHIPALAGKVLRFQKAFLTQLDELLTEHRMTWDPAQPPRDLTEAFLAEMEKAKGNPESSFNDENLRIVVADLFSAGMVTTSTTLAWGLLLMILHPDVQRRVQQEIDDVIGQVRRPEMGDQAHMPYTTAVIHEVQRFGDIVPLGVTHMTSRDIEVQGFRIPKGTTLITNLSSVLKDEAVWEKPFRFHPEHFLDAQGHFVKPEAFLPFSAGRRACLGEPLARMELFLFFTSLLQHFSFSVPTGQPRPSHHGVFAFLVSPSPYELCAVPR
# Description: Inhibition of human CYP2D6 using dextromethorphan as substrate
# [22] = Oral bioavailability in cynomolgus monkey at 1 mg/kg; format: ADME, organism-based, Macaca fascicularis; conditions: in vivo
# [23] = Stability in simulated intestinal fluid; format: ADME; conditions: simulated gi fluid
# [24] = Stability in simulated gastric fluid after 120 mins; format: ADME; conditions: read-out: Stability
# Adenosine receptor A1 [25] = molecular target: Adenosine receptor A1 (Rattus norvegicus, UniProt P25099); assay: Agonist activity at rat A1A adenosine receptor expressed in CHO-K1 cell membranes incubated for 60 mins by [35S]GTPgammaS binding assay; format: functional
# Sequence of Adenosine receptor A1 (Rattus norvegicus, UniProt P25099) (P25099 whole entry): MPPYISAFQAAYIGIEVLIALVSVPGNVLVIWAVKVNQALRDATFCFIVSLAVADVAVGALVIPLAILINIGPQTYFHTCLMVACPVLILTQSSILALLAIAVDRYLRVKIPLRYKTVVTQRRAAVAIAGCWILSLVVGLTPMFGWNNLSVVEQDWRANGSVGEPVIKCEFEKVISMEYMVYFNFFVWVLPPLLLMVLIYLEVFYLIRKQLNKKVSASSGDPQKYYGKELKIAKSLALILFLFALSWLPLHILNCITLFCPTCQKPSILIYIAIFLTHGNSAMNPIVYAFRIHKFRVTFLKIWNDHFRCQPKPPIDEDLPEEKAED
# [26] = molecular target: T6, Adenosine receptor A3 (Mus musculus) (UniProt Q61618); assay: Agonist activity at mouse A3AR adenosine receptor at 10 uM after 60 mins by [35S]GTPgammaS binding assay relative to (2S,3S,4R,5R)-5-(6-amino-9H-purin-9-yl)-N-ethyl-3,4-dihydroxytetrahydrofuran-2-carboxamide; format: functional
# T6 sequence (whole entry): T3 sequence (Q61618 whole entry)
# Mus musculus [27] = assay: Induction of hypothermia in C57BL/6J mouse assessed as body temperature at […], icv measured up to 120 mins post dose; format: functional, organism-based
# [28] = Fraction unbound in rat plasma at 10 uM; format: ADME, cell-free
# [29] = Inhibition of rat benzodiazepine receptor
# Mus musculus [30] = species: Mus musculus; assay: Selectivity index, ratio of Ki for mouse A3A adenosine receptor to Ki for mouse A1A adenosine receptor expressed in CHO cell membranes after 60 mins by scintillation proximity assay
# [31] = molecular target: Sigma intracellular receptor 2 (Homo sapiens, UniProt Q5BJF2); assay: Inhibition of sigma receptor 2 (unknown origin)
# Sequence of Sigma intracellular receptor 2 (Q5BJF2 whole entry): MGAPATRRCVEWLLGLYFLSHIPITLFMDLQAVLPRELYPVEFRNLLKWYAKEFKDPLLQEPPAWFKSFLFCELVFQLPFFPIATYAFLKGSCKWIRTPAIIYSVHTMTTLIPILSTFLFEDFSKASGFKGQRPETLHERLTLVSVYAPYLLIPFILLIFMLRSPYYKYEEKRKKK
# [32] = molecular target: T7, Adenosine receptor A1 (Mus musculus) (UniProt Q60612); assay: Agonist activity at mouse A1A adenosine receptor at 10 uM after 60 mins by [35S]GTPgammaS binding assay relative to (2S,3S,4R,5R)-5-(6-amino-9H-purin-9-yl)-N-ethyl-3,4-dihydroxytetrahydrofuran-2-carboxamide; format: functional
# T7 sequence (whole entry): T5 sequence (Q60612 whole entry)
# [33] = Fraction unbound in mouse plasma at 10 uM; format: ADME, cell-free
# [34] = Fraction unbound in human plasma at 10 uM; format: ADME, cell-free
# [35] = molecular target: T8, Adenosine receptor A3 (Homo sapiens) (UniProt P0DMS8); assay: Displacement of [125I]N6-(4-amino-3-iodobenzyl)adenosine-5-N-methyluronamide from human A3A adenosine receptor expressed in CHO cell membranes at 10 uM after 60 mins by scintillation proximity assay relative to adenosine 5-N-ethyluronamide
# T8 sequence (whole entry): T4 sequence (P0DMS8 whole entry)
# Mus musculus [36] = assay: Induction of hypothermia in C57BL/6J mouse assessed as body temperature at […], icv measured after 10 hrs post dose; format: functional, organism-based
# Adenosine receptor A2a [37] = molecular target: Adenosine receptor A2a (Mus musculus, UniProt Q60613); assay: Displacement of [3H]2-[p-(2-carboxyethyl)phenylethylamino]-5-N-ethylcarboxamidoadenosine from mouse A2A adenosine receptor expressed in HEK293 cell membranes after 60 mins by scintillation proximity assay
# Sequence of Adenosine receptor A2a (Mus musculus, UniProt Q60613) (Q60613 whole entry): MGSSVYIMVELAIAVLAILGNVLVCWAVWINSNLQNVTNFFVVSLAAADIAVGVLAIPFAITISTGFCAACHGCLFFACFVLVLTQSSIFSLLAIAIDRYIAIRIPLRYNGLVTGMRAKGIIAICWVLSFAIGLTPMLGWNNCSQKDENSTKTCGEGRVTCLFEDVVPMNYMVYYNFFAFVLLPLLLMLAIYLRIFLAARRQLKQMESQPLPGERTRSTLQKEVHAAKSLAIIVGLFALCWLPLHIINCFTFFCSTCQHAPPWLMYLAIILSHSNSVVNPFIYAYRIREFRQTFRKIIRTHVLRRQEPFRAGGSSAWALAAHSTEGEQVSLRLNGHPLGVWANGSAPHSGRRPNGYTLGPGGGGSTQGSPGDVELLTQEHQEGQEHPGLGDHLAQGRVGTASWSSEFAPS
# [38] = molecular target: Adenosine receptor A1 (Rattus norvegicus) (UniProt P25099); conditions: CHO-K1, 10 uM
# Sequence of Adenosine receptor A1 (Rattus norvegicus) (P25099 whole entry): as the sequence (P25099 whole entry) above
# [39] = Toxicity in Sprague-Dawley rat assessed as increase in blood pressure at 0.02 mg/kg, iv; format: organism-based; conditions: in vivo
# Sequence of Translocator protein (P30536 whole entry): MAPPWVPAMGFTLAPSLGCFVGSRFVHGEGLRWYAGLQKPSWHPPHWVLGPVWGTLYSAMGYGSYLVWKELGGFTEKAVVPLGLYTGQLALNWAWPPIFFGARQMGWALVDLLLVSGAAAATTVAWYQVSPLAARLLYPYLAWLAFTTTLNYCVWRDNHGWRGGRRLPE
structure (smiles),measurement,setting,value
O[C@@H]1[C@H](O)[C@@H]2C[C@@H]2[C@H]1n1cnc2c(NC(C3CCC3)C3CCC3)nc(Cl)nc21,pKi,Translocator protein,5.62
same,pKi,Adenosine receptor A1 [1],6.02
same,pKi,[2],5.08
same,pKi,[3],5.54
same,pKi,Adenosine receptor A3 [4],6.41
same,inhibition,Adenosine receptor A2a [5],46%
same,pKi,[6],5.16
same,pKi,Adenosine receptor A3 [7],6.09
O[C@@H]1[C@H](O)[C@@H]2C[C@@H]2[C@H]1n1cnc2c(NC(C3CC3)C3CC3)nc(Cl)nc21,Activity,Mus musculus [8],5.5
same,pIC50,Cytochrome P450 2C9,< 4.60
same,bioavailability,[9],98%
same,Activity,[10],Toxic
same,pKi,Adenosine receptor A1 [11],8.28
same,beta t1/2,[12],5 to 11 h
same,pIC50,Cytochrome P450 3A4,< 4.60
same,Activity,[13],Toxic
same,PPB,[14],90%
same,T,Mus musculus [15],33.4 °C
same,bioavailability,[16],124%
same,Activity,[17],Non-Toxic
same,Stability,[18],Stable
same,beta t1/2,[19],2.5 to 4 h
same,Activity,[20],Non-Toxic
same,PPB,[21],94%
same,pIC50,Cytochrome P450 2D6,< 4.60
same,F,[22],24%
same,Stability,[23],Stable
same,remaining at 2 h,[24],51%
same,pEC50,Adenosine receptor A1 [25],8.18
OC[C@@]12C[C@@H]1[C@@H](n1cnc3c(NC(C4CCC4)C4CCC4)ncnc31)[C@H](O)[C@@H]2O,Emax,[26],92%
same,Activity,Mus musculus [27],Active
same,Fu,[28],17.8%
same,Activity,Mus musculus [8],18.1
same,pKi,[29],5.39
same,Ratio Ki,Mus musculus [30],1730
same,inhibition,Adenosine receptor A2a [5],34%
same,T,Mus musculus [15],36.2 °C
same,pKi,[31],6.12
same,Emax,[32],97%
same,Fu,[33],27.5%
same,Fu,[34],14.6%
same,inhibition,[35],51%
same,Activity,Mus musculus [36],Active
OC[C@H]1O[C@@H](n2cnc3c(NC4CCCC4)nc(Cl)nc32)[C@H](O)[C@@H]1O,pKi,Adenosine receptor A1 [11],[…]
same,pKi,Adenosine receptor A2a [37],6.01
same,Emax,[38],103%
same,Activity,[39],Toxic
